Literature values in PMC3082041 (Cancer Chemotherapy and Pharmacology, 2010).

System: patients
Details: treated with Imatinib; cited from earlier work

Cc1ccc(NC(=O)c2ccc(CN3CCN(C)CC3)cc2)cc1Nc1nccc(-c2cccnc2)n1 [Imatinib]
patients with grade 3/4 edema: 7%
